Test results: patent publication US10034886B2, “GLP-1 receptor modulators” (Celgene International II SÀRL, priority 2014, dated 2018)
Read-outs that look alike come from different tables or passages of the source.

Biological target: T1, GLP-1R (Homo sapiens, UniProt P43220)
T1 construct: host or cells: GLP-1R CRE-bla CHO-K1 cells
Assay: EC20 GLP-1(9-36) PAM cAMP assay: dose response of compound in the presence of fixed concentration of GLP-1(9-36)
Format: cell-based
Details: GLP-1R CRE-bla CHO-K1 cells, read-out: EC20 GLP-1(9-36) PAM EC50
Outline: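 Positive allosteric modulation read as cAMP accumulation: compound titrations (12 points) combined with an EC20 level of GLP-1(9-36) on CHO-K1 GLP-1R CRE-bla cells, IBMX present, 30 min, 37 °C, pH 7.4 buffer. Luminescence converted to cAMP via standards; non-linear fit gave EC50 and Emax.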

[1] = dose response of compound in presence of fixed concentration of GLP-1(9-36)
[2] = compound dose response with fixed concentration of GLP-1(9-36)

T1 sequence (P43220 24-463): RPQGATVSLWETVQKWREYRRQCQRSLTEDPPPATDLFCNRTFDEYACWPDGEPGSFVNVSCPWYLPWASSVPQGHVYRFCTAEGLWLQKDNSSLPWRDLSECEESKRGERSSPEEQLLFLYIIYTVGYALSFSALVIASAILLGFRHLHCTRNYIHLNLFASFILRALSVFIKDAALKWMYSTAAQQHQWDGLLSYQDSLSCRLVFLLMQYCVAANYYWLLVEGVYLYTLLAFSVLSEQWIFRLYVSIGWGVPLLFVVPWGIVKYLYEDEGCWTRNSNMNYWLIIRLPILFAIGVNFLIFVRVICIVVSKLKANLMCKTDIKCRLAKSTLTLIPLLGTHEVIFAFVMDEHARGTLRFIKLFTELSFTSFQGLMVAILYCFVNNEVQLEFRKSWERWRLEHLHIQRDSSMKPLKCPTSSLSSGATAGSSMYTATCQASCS
T1 sequence (P01275 100-127 partner limits assumed): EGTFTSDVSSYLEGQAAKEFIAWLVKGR

For CCCCCCCOc1ccc(-c2cnc(-c3ccc(C[C@H](NC(=O)c4ccc(C(C)(C)C)s4)C(=O)NC(C(=O)O)C(O)C4CC4)cc3)nc2)cc1 (some centres unmarked) [Compound 908], the EC50 [1] was 800 to 2500 nM.
CC[C@H]1CC[C@H](c2ccc(-c3cnc(-c4ccc(C[C@H](NC(=O)c5ccc(C6CC6)cc5)C(=O)N5CC(C(=O)O)C5)cc4)nc3)cc2)CC1 [Compound 1158] was tested, and the EC50 [1] was under 800 nM.
In the case of CCCCCCCOc1ccc(-c2cnc(-c3ccc(C[C@H](NC(=O)c4ccc(C(C)(C)C)cc4)C(=O)N[C@H](CO)C(=O)O)cc3)nc2)cc1 [Compound 417], the EC50 [1] is reported as under 800 nM.
CCCCCCCOc1ccc(-c2cnc(-c3ccc(C[C@H](NC(=O)c4ccc(C(C)(C)C)s4)C(=O)N4CC(CCN)C4)cc3)nc2)cc1 [Compound 989] gave an EC50 [1] of 800 to 2500 nM.
CCCCCCCOc1ccc(-c2cnc(-c3ccc(C[C@H](NC(=O)c4ccc(C(C)(C)C)s4)C(=O)N[C@@H](CC(=O)O)C(N)=O)cc3)nc2)cc1 [Compound 525] gave an EC50 [1] of under 800 nM.
In the case of C[C@@H](NC(=O)[C@H](Cc1ccc(-c2ncc(-c3ccc(C4CCCCC4)cc3)cn2)cc1)NC(=O)c1ccc(C(C)(C)C)s1)C(=O)O [Compound 1282], the EC50 [2] is reported as under 800 nM.
For CCC1CCC(C2CCN(c3cnc(-c4ccc(C[C@H](NC(=O)c5ccc(C(C)(C)C)s5)C(=O)N5CC(C(=O)O)C5)cc4)nc3)CC2)CC1 (some centres unmarked) [Compound 1429], the EC50 [2] was under 800 nM.
In the case of CCCCOc1ccc(-c2cnc(-c3ccc(C[C@H](NC(=O)c4ccc(C(C)(C)C)cc4)C(=O)N[C@H](C)C(=O)O)cc3)nc2)cc1 [Compound 717], the EC50 [1] is reported as 800 to 2500 nM.
In the case of CCCCCCCOc1ccc(-c2cnc(-c3ccc(C[C@H](NC(=O)c4ccc(C(C)(C)C)s4)C(=O)N[C@@H](c4n[nH]c(=S)o4)[C@@H](C)O)cc3)nc2)cc1 [Compound 895], the EC50 [1] is reported as under 800 nM.
Compound CC[C@H]1CC[C@H](c2ccc(-c3cnc(-c4ccc(C[C@H](NC(=O)c5ccc(CC(C)C)cc5)C(=O)N5CC(C(=O)O)C5)cc4)nc3)cc2)CC1 [Compound 1155] has an EC50 [1] of under 800 nM.
Compound CCCCCCCOc1ccc(-c2cnc(-c3ccc(C[C@H](NC(=O)c4ccc(C(C)(C)C)s4)C(=O)NS(C)(=O)=O)cc3)nc2)cc1 [Compound 419] has an EC50 [1] of under 800 nM.
CCCCc1ccc(-c2ccc(-c3cnc(-c4ccc(C[C@H](NC(=O)c5ccc(C(C)(C)C)s5)C(=O)N5CC(C(=O)O)C5)cc4)nc3)cc2)cc1 [Compound 1394] was tested, and the EC50 [2] was under 800 nM.
In the case of CCCCCCCOc1ccc(-c2cnc(-c3ccc(C[C@H](NC(=O)c4ccc(C(C)(C)C)s4)C(=O)NC(C(=O)O)C(O)c4cn(C)cn4)cc3)nc2)cc1 (some centres unmarked) [Compound 906], the EC50 [1] is reported as 2500 to 5000 nM.
With C[C@@H](NC(=O)[C@H](Cc1ccc(-c2ncc(/C=C/c3cccc(F)c3)cn2)cc1)NC(=O)c1ccc(C(C)(C)C)s1)C(=O)O [Compound 1248] the EC50 [2] was 5000 to 10000 nM.
Compound CCCCCCCOc1ccc(-c2cnc(-c3ccc(C[C@H](NC(=O)c4ccc(C(C)(C)C)s4)C(=O)N4CC(OC)(C(=O)O)C4)cc3)nc2)cc1 [Compound 873] has an EC50 [1] of under 800 nM.
In the case of CCCCCCCOc1ccc(-c2cnc(-c3ccc(C[C@H](NC(=O)c4ccc(C(C)(C)C)s4)C(=O)NCCOC)cc3)nc2)cc1 [Compound 386], the EC50 [1] is reported as 800 to 2500 nM.
CCCCCCCOc1ccc(-c2cnc(-c3ccc(C[C@H](NC(=O)c4ccc(C(C)(C)C)s4)C(=O)N4CC5(CC(C(=O)O)C5)C4)cc3)nc2)cc1 [Compound 877] was tested, and the EC50 [1] was 800 to 2500 nM.
Work on COc1ccc(-c2ccc(-c3cnc(-c4ccc(C[C@H](NC(=O)c5ccc(C(C)(C)C)s5)C(=O)N[C@H](C)C(=O)O)cc4)nc3)cc2)cc1 [Compound 1002] yielded an EC50 [1] of 800 to 2500 nM.
With CCCc1ccc(C2CCN(c3cnc(-c4ccc(C[C@H](NC(=O)c5ccc(C(C)(C)C)s5)C(=O)N5CC(C(=O)O)C5)cc4)nc3)C2)cc1 (some centres unmarked) [Compound 1504] the EC50 [2] was 800 to 2500 nM.
CCCCCCCOc1ccc(-c2cnc(-c3ccc(C[C@H](NC(=O)c4ccc(C(C)(C)C)cc4OCC)C(=O)N4CC(C(=O)O)C4)cc3)nc2)cc1 [Compound 1100] gave an EC50 [1] of 2500 to 5000 nM.
For CC(C)(C)c1ccc(C(=O)N[C@@H](Cc2ccc(-c3ncc(-c4ccc(-c5ccc(OC(F)(F)F)cc5F)cc4F)cn3)cc2)C(=O)N2CC(C(=O)O)C2)s1 [Compound 1203], the EC50 [2] was under 800 nM.
For CCCCCCCOc1ccc(-c2cnc(-c3ccc(C[C@H](NC(=O)c4cnc(C(C)(C)C)nc4)C(=O)N[C@H](C)C(=O)O)cc3)nc2)cc1 [Compound 832], the EC50 [1] was 2500 to 5000 nM.
CCCCCCCOc1ccc(-c2cnc(-c3ccc(C[C@H](NC(=O)c4ccc(C(C)(C)C)s4)C(=O)N[C@@H](CC(=O)Nc4nnn[nH]4)C(=O)O)cc3)nc2)cc1 [Compound 522] was tested, and the EC50 [1] was 800 to 2500 nM.
Work on CCCCCCCOc1ccc(-c2cnc(-c3ccc(CC(NC(=O)c4ccc(C(C)(C)C)s4)C(=O)N[C@H](C(=O)O)[C@@H](C)CC)cc3)nc2)cc1 (some centres unmarked) [Compound 414] yielded an EC50 [1] of under 800 nM.
Work on CCCCCCCc1ccc(-c2cnc(-c3ccc(C[C@H](NC(=O)c4ccc(C(C)(C)C)s4)C(=O)N4CC[C@H](C(=O)O)C4)cc3)nc2)cc1 [Compound 765] yielded an EC50 [1] of 800 to 2500 nM.
CCCc1ccc(-c2ccc(-c3cnc(-c4ccc(C[C@H](NC(=O)c5ccc(C(C)(C)C)s5)C(=O)O)cc4)nc3)c(F)c2)cc1 [Compound 1061] gave an EC50 [1] of 2500 to 5000 nM.
With Cc1ccc(-c2ccc(-c3cnc(-c4ccc(C[C@H](NC(=O)c5ccc(C(C)(C)C)s5)C(=O)N5CC(C(=O)O)C5)cc4)nc3)c(F)c2)cc1 [Compound 1207] the EC50 [2] was under 800 nM.
Work on CCC[C@H]1CC[C@H](C2CCN(c3cnc(-c4ccc(CC(NC(=O)c5ccc(C(C)(C)C)s5)C(=O)NS(=O)(=O)CCOC)cc4)nc3)CC2)CC1 (some centres unmarked) [Compound 1540] yielded an EC50 [2] of under 800 nM.
Work on CCCCCCCOc1ccc(-c2cnc(-c3ccc(C[C@H](NC(=O)c4ccc(C(C)(C)C)s4)C(=O)N[C@@H](CC(=O)NCC(N)=O)C(=O)O)cc3)nc2)cc1 [Compound 518] yielded an EC50 [1] of 800 to 2500 nM.
Compound CCCCCCCOc1ccc(-c2cnc(-c3ccc(C[C@H](NC(=O)c4ccc(C(C)(C)C)cc4)C(=O)NC(C)(C)C(=O)O)cc3)nc2)cc1 [Compound 409] has an EC50 [1] of 800 to 2500 nM.
CCCc1ccc(-c2cnc(-c3ccc(C[C@H](NC(=O)c4ccc(C(C)(C)C)cc4)C(=O)NCCC(=O)O)cc3)nc2)cc1 [Compound 687] was tested, and the EC50 [1] was 2500 to 5000 nM.
With CCCCc1ccc(C2CCCN(c3cnc(-c4ccc(C[C@H](NC(=O)c5ccc(C(C)(C)C)s5)C(=O)N5CC(C(=O)O)C5)cc4)nc3)CC2)cc1 (some centres unmarked) [Compound 1508] the EC50 [2] was under 800 nM.
CCCCCCCOc1ccc(-c2cnc(-c3ccc(C[C@H](NC(=O)c4ccc(C(C)(C)C)s4)C(=O)N[C@@H](CC(=O)NS(C)(=O)=O)C(=O)O)cc3)nc2)cc1 [Compound 523] gave an EC50 [1] of under 800 nM.
CCCCCCCOc1ccc(-c2cnc(-c3ccc(C[C@H](NC(=O)c4ccc(C(C)(C)C)s4)C(=O)N[C@@H](Cn4cncn4)C(=O)O)cc3)nc2)cc1 [Compound 639] showed an EC50 [1] of under 800 nM.
Work on CCCCCCCOc1ccc(-c2cnc(-c3ccc(C[C@H](NC(=O)c4cnn(C(C)(C)C)c4)C(=O)N4CC(C(=O)O)C4)cc3)nc2)cc1 [Compound 1099] yielded an EC50 [1] of 800 to 2500 nM.
CC(C)(C)COc1ccc(-c2cnc(-c3ccc(C[C@H](NC(=O)c4ccc(C(C)(C)C)s4)C(=O)N4CC(C(=O)O)C4)cc3)nc2)cc1 [Compound 775] showed an EC50 [1] of under 800 nM.
Work on Cc1ccc(C(O)c2ccc(-c3cnc(-c4ccc(C[C@H](NC(=O)c5ccc(C(C)(C)C)s5)C(=O)N[C@H](C)C(=O)O)cc4)nc3)cc2)cc1 (some centres unmarked) [Compound 1030] yielded an EC50 [1] of 5000 to 10000 nM.
With CCCCOCCOc1ccc(-c2cnc(-c3ccc(C[C@H](NC(=O)c4ccc(C(C)(C)C)cc4)C(=O)NCCC(=O)O)cc3)nc2)cc1 [Compound 457] the EC50 [1] was 2500 to 5000 nM.
